Data taken from the supplement of paper PMC10307832.

Tests used:
Test in all cases: relative viability (nuclei count vs DMSO), 5 days (fraction); higher = more cells survive
JZL-184 + Dasatinib = compound: C1CN(CCC1C(C2=CC3=C(C=C2)OCO3)(C4=CC5=C(C=C4)OCO5)O)C(=O)OC6=CC=C(C=C6)[N+](=O)[O-] [JZL-184] + Cc1nc(Nc2ncc(C(=O)Nc3c(C)cccc3Cl)s2)cc(N2CCN(CCO)CC2)n1 [Dasatinib] (partner 0.075 µM)
Method in brief: (§1)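 Medians of duplicate plates are given as relative viability. That measure is the nuclei count in treated wells divided by the count in vehicle wells. Counts were taken on 4× images of lung cancer cell lines in 1536-well plates, 5 days after pin-tool dosing the day after seeding with one drug alone or a fixed anchor-drug dose plus five library-drug doses (not always all listed) in √10 steps.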

JZL-184 + Decitabine = compound: C1CN(CCC1C(C2=CC3=C(C=C2)OCO3)(C4=CC5=C(C=C4)OCO5)O)C(=O)OC6=CC=C(C=C6)[N+](=O)[O-] [JZL-184] + Nc1ncn([C@H]2C[C@H](O)[C@@H](CO)O2)c(=O)n1 [Decitabine] (partner 2 µM)
Method in brief: as §1

JZL-184 + Navitoclax = compound: C1CN(CCC1C(C2=CC3=C(C=C2)OCO3)(C4=CC5=C(C=C4)OCO5)O)C(=O)OC6=CC=C(C=C6)[N+](=O)[O-] [JZL-184] + CC1(C)CCC(c2ccc(Cl)cc2)=C(CN2CCN(c3ccc(C(=O)NS(=O)(=O)c4ccc(N[C@H](CCN5CCOCC5)CSc5ccccc5)c(S(=O)(=O)C(F)(F)F)c4)cc3)CC2)C1 [Navitoclax] (partner 0.5 µM)
Method in brief: as §1

JZL-184 + Foretinib = compound: C1CN(CCC1C(C2=CC3=C(C=C2)OCO3)(C4=CC5=C(C=C4)OCO5)O)C(=O)OC6=CC=C(C=C6)[N+](=O)[O-] [JZL-184] + COc1cc2c(Oc3ccc(NC(=O)C4(C(=O)Nc5ccc(F)cc5)CC4)cc3F)ccnc2cc1OCCCN1CCOCC1 [Foretinib] (partner 0.25 µM)
Method in brief: as §1

JZL-184 + Tozasertib = compound: C1CN(CCC1C(C2=CC3=C(C=C2)OCO3)(C4=CC5=C(C=C4)OCO5)O)C(=O)OC6=CC=C(C=C6)[N+](=O)[O-] [JZL-184] + Cc1cc(Nc2cc(N3CCN(C)CC3)nc(Sc3ccc(NC(=O)C4CC4)cc3)n2)n[nH]1 [Tozasertib] (partner 0.1 µM)
Method in brief: as §1

Row | Cell Line | relative viability (JZL-184 + Dasatinib; first compound 0.04 µM) | relative viability (JZL-184 + Dasatinib; first compound 0.4 µM) | relative viability (JZL-184 + Dasatinib; first compound 1.265 µM) | relative viability (JZL-184 + Dasatinib; first compound 4 µM) | relative viability (JZL-184 + Decitabine; first compound 0.04 µM) | relative viability (JZL-184 + Decitabine; first compound 0.4 µM) | relative viability (JZL-184 + Decitabine; first compound 1.265 µM) | relative viability (JZL-184 + Decitabine; first compound 4 µM) | relative viability (JZL-184 + Navitoclax; first compound 0.04 µM) | relative viability (JZL-184 + Navitoclax; first compound 0.4 µM) | relative viability (JZL-184 + Navitoclax; first compound 1.265 µM) | relative viability (JZL-184 + Navitoclax; first compound 4 µM) | relative viability (JZL-184 + Foretinib; first compound 0.04 µM) | relative viability (JZL-184 + Foretinib; first compound 0.4 µM) | relative viability (JZL-184 + Foretinib; first compound 1.265 µM) | relative viability (JZL-184 + Foretinib; first compound 4 µM) | relative viability (JZL-184 + Tozasertib; first compound 0.04 µM) | relative viability (JZL-184 + Tozasertib; first compound 0.4 µM) | relative viability (JZL-184 + Tozasertib; first compound 1.265 µM) | relative viability (JZL-184 + Tozasertib; first compound 4 µM)
1 | PC-3 [JPC-3] | 1.01 | 0.905 | 0.976 | 0.945 | 1.02 | 0.825 | 0.874 | 0.822 | 0.794 | 0.838 | 0.791 | 0.77 | 1.08 | 0.975 | 1.09 | 0.913 | 1.01 | 0.827 | 0.895 | 0.865
2 | PC-14 | 0.293 | 0.271 | 0.287 | 0.255 | 0.343 | 0.199 | 0.198 | 0.241 | 0.998 | 1 | 0.964 | 0.992 | 1.02 | 0.927 | 0.954 | 0.946 | 0.647 | 0.623 | 0.631 | 0.485
3 | RERF-LC-KJ | 0.909 | 0.72 | 0.864 | 0.759 | 0.854 | 0.706 | 0.808 | 0.56 | 1.01 | 1.1 | 0.951 | 0.825 | 0.933 | 0.9 | 0.876 | 0.781 | 0.499 | 0.37 | 0.453 | 0.436
4 | SK-LU-1 | 0.183 | 0.196 | 0.194 | 0.207 | 0.673 | 0.584 | 0.705 | 0.698 | 1.36 | 0.866 | 0.915 | 0.823 | 0.909 | 0.77 | 0.919 | 0.722 | 0.372 | 0.328 | 0.329 | 0.338
5 | SK-MES-1 | 0.332 | 0.486 | 0.359 | 0.445 | 0.448 | 0.381 | 0.405 | 0.403 | 1.35 | 1.14 | 1.12 | 1.17 | 1.01 | 1.02 | 1.02 | 0.86 | 1.04 | 0.878 | 0.908 | 0.706
6 | SW 1573 | 0.638 | 0.379 | 0.548 | 0.42 | 0.818 | 0.449 | 0.484 | 0.463 | 0.913 | 0.912 | 1.21 | 1.16 | 1.06 | 0.791 | 0.94 | 0.829 | 0.175 | 0.143 | 0.229 | 0.176
7 | UMC-11 | 0.662 | 0.474 | 0.494 | 0.447 | 0.738 | 0.521 | 0.616 | 0.733 | 0.349 | 0.318 | 0.349 | 0.302 | 1.09 | 0.883 | 1.11 | 1.09 | 0.177 | 0.21 | 0.206 | 0.196
